These are literature values, as cited in patent US20250339446A1 (Kessler Foundation Inc., priority 2016, published 2025).

One data set concerns BMD in the vertebrae. Conditions: men with idiopathic osteoporosis; cited from earlier work.
For data set [1] the following is noted: daily administration; cited from earlier work.
For data set [2], the system named is bone mineral density (BMD). Conditions: rat, hind limb unweighting; cited from earlier work.
Data set [3] deals with muscle mass, muscle strength, and bone. To be noted: androgen-deficient men and older men with low testosterone levels; testosterone alone; cited from earlier work.

For `C[C@]12CC[C@H]3[C@@H](CCC4=CC(=O)CC[C@@]43C)[C@@H]1CC[C@@H]2O` [testosterone], in the data set with BMD in the vertebrae, the “BMD in the vertebrae” value is “increased BMD in the vertebrae”. Also, the “absorption and elimination after transdermal application” value in data set [1] is “absorbed and eliminated over the course of a day”. In data set [2], the “immobilization-related decrease in BMD” value is given as “blocked much of the immobilization-related decrease in BMD”. For the same molecule, in data set [3], the “muscle mass, muscle strength, and bone” value was “increase muscle mass, muscle strength, and bone”.

As for `C[C@]12CC[C@H]3[C@@H](CCC4=CC(=O)CC[C@@H]43)[C@@H]1CC[C@@H]2O` [nandrolone], in data set [2], the “immobilization-related decrease in BMD” value is “blocked much of the immobilization-related decrease in BMD”.
